Laboratory results taken from ChEMBL document CHEMBL4425167, “Screening Identifies Thimerosal as a Selective Inhibitor of Endoplasmic Reticulum Aminopeptidase 1” (ACS Med Chem Lett, 2016).
The source made the active and inactive calls. The calls are words filed in the database; no cut-off is given here.

How the values were obtained:
BMDC [1] = test: Inhibition of ovalbumin cross presentation to OT-I Rag1-/-mouse CD8+ T cells in C57Bl/6 JRj mouse ERAP-/- BMDC assessed as increase in IL-2 secretion from CD8+ T cells at 0.01 to 10 uM preincubated for 90 mins followed by 3 to 18 hrs incubation in presence of ovalbumin by sandwich ELISA method; assay type: functional, cell-based
BMDC [2] = test: Inhibition of ovalbumin cross presentation to OT-I Rag1-/-mouse CD8+ T cells in C57Bl/6 JRj mouse ERAP+/+ BMDC assessed as increase in IL-2 secretion from CD8+ T cells at 0.01 to 10 uM preincubated for 90 mins followed by 3 to 18 hrs incubation in presence of ovalbumin by sandwich ELISA method; assay type: functional, cell-based
[3] = target: T1, Endoplasmic reticulum aminopeptidase 1 (Homo sapiens, UniProt Q9NZ08); test: Inhibition of recombinant ERAP1 (unknown origin) expressed in baculovirus infected Hi5 cells using L-leucine 7-amido-4-methyl coumarin as substrate up to 30 uM by fluorescence microplate reader method
[4] = target: T1, Endoplasmic reticulum aminopeptidase 1; test: Inhibition of human ERAP1 expressed in African green monkey COS7 cells using aminoacyl-4-methylcoumaryl-7-amide as substrate after 15 mins by spectrofluorophotometric method

T1 sequence (Q9NZ08 whole entry): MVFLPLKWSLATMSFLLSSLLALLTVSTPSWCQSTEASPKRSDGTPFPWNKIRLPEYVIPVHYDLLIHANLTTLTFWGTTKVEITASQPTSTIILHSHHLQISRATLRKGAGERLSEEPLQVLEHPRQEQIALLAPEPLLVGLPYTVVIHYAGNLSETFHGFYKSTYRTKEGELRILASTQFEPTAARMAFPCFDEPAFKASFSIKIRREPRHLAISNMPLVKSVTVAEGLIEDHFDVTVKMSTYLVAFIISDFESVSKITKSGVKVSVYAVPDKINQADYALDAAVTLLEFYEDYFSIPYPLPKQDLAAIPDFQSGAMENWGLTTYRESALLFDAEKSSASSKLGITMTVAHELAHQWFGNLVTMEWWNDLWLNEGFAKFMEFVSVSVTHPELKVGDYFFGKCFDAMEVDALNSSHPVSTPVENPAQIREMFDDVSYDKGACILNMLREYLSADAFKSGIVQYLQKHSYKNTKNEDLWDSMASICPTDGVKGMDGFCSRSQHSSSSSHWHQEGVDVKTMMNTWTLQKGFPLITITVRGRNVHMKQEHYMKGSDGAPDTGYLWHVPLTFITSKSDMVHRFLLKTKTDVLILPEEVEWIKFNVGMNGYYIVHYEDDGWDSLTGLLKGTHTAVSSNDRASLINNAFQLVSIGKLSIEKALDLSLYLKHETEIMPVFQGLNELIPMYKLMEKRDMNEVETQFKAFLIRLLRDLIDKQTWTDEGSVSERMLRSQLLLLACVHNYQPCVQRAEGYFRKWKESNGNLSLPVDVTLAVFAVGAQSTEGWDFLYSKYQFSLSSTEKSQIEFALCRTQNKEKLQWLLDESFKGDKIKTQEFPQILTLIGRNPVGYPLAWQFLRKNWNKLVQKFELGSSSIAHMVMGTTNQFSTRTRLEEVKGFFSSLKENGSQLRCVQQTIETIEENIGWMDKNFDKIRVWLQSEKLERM

| SMILES | inhibition (BMDC [1]) | inhibition (BMDC [2]) | inhibition [3] | IC50 [4] [µM] |
| --- | --- | --- | --- | --- |
| O=C(O)c1ccccc1S | inactive | inactive | inactive | – |
| CC(C)C[C@H](NC(=O)[C@@H](O)[C@H](N)Cc1ccccc1)C(=O)O [UBENIMEX] | – | – | – | 50 to 100 |
